These results are taken from PMC8062851, “2-Methoxyestradiol and its derivatives inhibit store-operated Ca^2+ entry in T cells: Identification of a new and potent inhibitor” (Biochimica et Biophysica Acta. Molecular Cell Research, 2021).

Structures are written as SMILES. “Also recorded” adds a separate entry of the source. Where two headings read alike, the source gives them in different places.

In experiment [1] the test system is SOCE in human Jurkat T cells. The experiment is described as follows: cells. Format: cell-based. The note with it: Ca2+ free/Ca2+ re-addition protocol, plateau 425-475 s after re-addition of 1 mM Ca2+. The procedure:
Jurkat T-lymphocytes, primary human CD4^+ T cells and H1299 cells were pelleted at 450 ×g for 5 min, rat TMBP at 300 ×g for 8 min at room temperature and were resuspended in 1 ml of either standard JMP medium (Jurkat, H1299 and human CD4^+ T cells) or standard DMEM based medium containing 10% fetal bovine serum (FBS) (v/v) (TMBP cells). Resting TMBP cells (day 5–7 after re-stimulation) after the second to fifth re-stimulation were thawed from liquid nitrogen 12 to 40 h prior to Fura2-loading. After pre-incubation for 5 min at 37 °C, cells were incubated with 4 μM Fura2-AM for 15 min at 37 °C. After addition of the dye, cells were kept in the dark. Afterwards, cells and the dye were diluted by addition of 4 ml standard medium and incubated for another 15 min. Cells were washed twice in Ca^2+ buffer (140 mM NaCl, 5 mM KCl, 1 mM MgSO4, 1 mM CaCl2, 1 mM NaH2PO4, 20 mM HEPES, 5.5 mM glucose; pH 7.4 (NaOH), sterile filtered) and were diluted to a concentration of 2*10^6 cells/ml. Subsequently, cells were kept at room temperature for 20 min for de-esterification before the start of the first measurement.
In experiments using a Ca^2+ free/Ca^2+ re-addition protocol, cells were pelleted as described for Fura2 loading and Ca^2+ buffer was exchanged by 1 ml nominal Ca^2+ free buffer (140 mM NaCl, 5 mM KCl, 1 mM MgSO4, 1 mM NaH2PO4, 20 mM HEPES, 5.5 mM glucose; pH 7.4 (NaOH), sterile filtered) immediately before starting the measurement. The measurement was controlled by FL Solutions (Version 4.1, Hitachi High-Technologies Corporation). Fura2 was alternatively excited every 2 s at 340 ± 5 nm and 380 ± 5 nm, each 400 ms apart.
Finally, every measurement was calibrated using 0.1% (v/v) Triton X-100 to obtain a maximal ratio and 4 mM EGTA and 30 mM Tris to obtain a minimal ratio.
R is the ratio between F340 and F380. Rmin and Rmax are the minimal and maximal ratio, respectively, obtained by calibration. F380 min and F380 max are the minimal and maximal fluorescence intensity at 380 nm EX during the calibration. Finally, artefacts due to compound additions that usually could easily be identified and lasted about 8 s were deleted from the tracings using FL Solutions (Version 4.1, Hitachi High-Technologies Corporation). The fluorescence intensities of deleted data points were interpolated from those just before and after the deleted time points.
Estradiol, 2ME2 and 2ME2 derivatives were dissolved in DMSO at a concentration of 50 mM and stored at −20 °C for up to 6 months. For concentration-response curves, stock solution was freshly diluted with DMSO to obtain the same DMSO concentration of 0.2% (v/v) for all conditions.
The compound concentrations were then log transformed. Finally, the data were fitted to a corresponding nonlinear fit of variable slope using Prism 6 (GraphPad Software, USA).

In another experiment the test system is IP3 receptors. In words: IP3-evoked Ca2+ release in permeabilized Jurkat T cells. The settings on record: 2 μM IP3. The format is cell-based, human. The method, then: 3 ∗ 10^7 Jurkat T-lymphocytes per measurement were centrifuged at 450 ×g for 5 min at room temperature. The pellet was rinsed twice, each time using 10 ml permeabilization buffer 1 (120 mM KCl, 10 mM NaCl, 1.2 mM MgCl2, 0.533 mM CaCl2, 1 mM EGTA and 10 mM HEPES, pH 7.2 (KOH), sterile filtered). Subsequently, the pellet was resuspended in 2 ml permeabilization buffer 1 containing 80 μg/ml saponin (Fluka) and the cells were incubated for 10 min at 37 °C. Subsequently, the cells were centrifuged at 450 ×g for 5 min at room temperature and the cell pellet was washed once in 10 ml permeabilization buffer 2 (120 mM KCl, 10 mM NaCl, 1.2 mM MgCl2 and 10 mM HEPES, pH 7.2 (KOH), sterile filtered). Finally, the cells were taken up in 1 ml permeabilization buffer 2, placed into a cuvette and measured at the fluorescence spectrophotometer. Before the start of the measurement, 0.5 μl of 1 mM Fura2 free acid (dissolved in pure water, final concentration: 0.5 μM), 5 μl of 5 mg/ml creatinkinase (dissolved in permeabilization buffer 2, final concentration: 25 μg/ml, 20 U/ml, Roche) and 10 μl of 2 M creatin phosphate (dissolved in permeabilization buffer 2, final concentration: 20 mM, Calbiochem) were added. Fura2 was used to measure the Ca^2+ concentration and creatinkinase and creatin phosphate were used as ATP-regenerating system. The measurement was controlled by FL Solutions (Version 4.1, Hitachi High-Technologies Corporation). Fura2 was alternatively excited every 2 s at 340 ± 5 nm and 380 ± 5 nm, each 400 ms apart. Fluorescence intensity was measured at an emission wavelength of 495 ± 5 nm for both excitation wavelengths. […] Ca^2+ concentrations were calculated according to Grynkiewicz et al. as described earlier in Section 2.4.
As a quantitative read-out for inhibition of IP3 receptors, the peak [Ca^2+] after IP3 addition was subtracted from the mean [Ca^2+] between 25 and 75 s before IP3 addition (dPeak). […] The rate constant K of the fitted data was used as a quantitative read-out for SERCA pump activity and its inhibition.

Another experiment has as its system TMBP cells. In words: In vitro activation of TMBP cells by MBP, CD25 surface expression by flow cytometry. Format: cell-based, rat. The method, then:
In vitro activation assays were performed in 96-well plates. […]. TMBP cell activation on mRNA level was determined using qPCR and on surface protein level using surface marker staining and subsequent flow cytometry analysis.
To assess in vitro T cell activation, surface staining for CD25 (OX39, Bio-Rad) was performed. APC-labelled goat anti-mouse antibody (Jackson ImmunoResearch) was used as secondary antibody. Mouse IgG1κ (MOPC 31C, Sigma-Aldrich) was used as control.
Cytofluorometric analysis was carried out with a CytoFLEX S (Beckman Coulter) operated by CytExpert software (Beckman Coulter). All procedures were performed at 4 °C. Data were analyzed by using FlowJo software (FlowJo, LLC).
(In general: A flow cytometer gives signals particle by particle.)

Broadly, the IC50 is the concentration needed to halve the response being measured. With `CCc1cc2c(cc1OS(N)(=O)=O)CC[C@@H]1[C@@H]2CC[C@]2(C)[C@@H](CC#N)CC[C@@H]12` [STX564, 2-ethyl-3-sulfamoyloxy-17β-cyanomethylestra-1,3,5(10)-triene], the IC50 in experiment [1] (Homo sapiens, Jurkat, read-out: IC50 of SOCE inhibition, Jurkat T cells) was 1200 nM; in experiment [1] (read-out: IC50 of SOCE inhibition, Jurkat T cells), about 1000 nM. Moreover, the “effect on IP3-evoked Ca2+ release” value with IP3 receptors is “Neither STX564 nor Synta66 affected IP3-evoked Ca^2+ release significantly; also recorded: did not inhibit the Ca^2+ release by IP3”. Also, the “concentration at which up-regulation of CD25 was significantly reduced” value with TMBP cells was at least 0.1 µM.
